In ChEMBL document CHEMBL5042483, “Discovery and Mechanism of SARS-CoV-2 Main Protease Inhibitors” (J Med Chem, 2022):
Active and inactive are the calls of the source. The rule behind the calls is not given here.

Columns and labels:
SARS-CoV-2 [1] = assay: (§1) Antiviral activity against SARS-CoV-2 USA_WA1/2020 infected in human iPSC derived lung organoids assessed as reduction in viral RNA in cell supernatant at 5 uM pretreated for 2 hrs with compound followed by viral infection for 2 hrs then followed by washout and replacement with fresh medium and measured after 72 hrs by qRT-PCR analysis relative to control; assay type: functional, organism-based; settings: Severe acute respiratory syndrome coronavirus 2, time 76.0 hrs
SARS-CoV-2 [2] = assay: as §1, with “intracellular fraction” for “cell supernatant”; assay type: functional, organism-based; settings: Severe acute respiratory syndrome coronavirus 2, time 76.0 hrs

O=c1c2ccccc2[se]n1-c1cccc(C(F)(F)F)c1
Activity (SARS-CoV-2 [1]): Active | Activity (SARS-CoV-2 [2]): Active
